Measurements from patent publication US11479525B2, “Propenylamines and methods of making and using same” (3M INNOVATIVE PROPERTIES COMPANY, priority 2016, dated 2022).

Assay: Atmospheric lifetime from the rate of reaction with hydroxyl radicals, relative to reference compounds (FTIR gas cell)
Format: physicochemical
Conditions: gas phase reaction with hydroxyl radical relative to chloromethane/ethane; for Atmospheric Lifetime, E-isomer: E-isomer of the 1-propenylamine; for Atmospheric Lifetime, Z-isomer: Z-isomer of the 1-propenylamine
Protocol: The atmospheric lifetimes of 1-propenylamines were determined from their rate of reaction with hydroxyl radicals. The pseudo-first order rates for the reaction of the gaseous 1-propenylamines with hydroxyl radical were measured in a series of experiments relative to reference compounds such as chloromethane and ethane. The measurements were performed in a 5.7 L, heated FTIR gas cell equipped with a polished semiconductor-grade quartz window. An Oriel Instruments UV Lamp, Model 66921 equipped with a 480 W mercury-xenon bulb was used to generate hydroxyl radicals by photolyzing ozone in the presence of water vapor. The concentrations of the 1-propenylamine and the reference compound were measured as a function of reaction time using an I-Series FTIR from Midac Corporation. The atmospheric lifetimes were calculated from the reaction rates for the 1-propenylamines relative to the reference compounds and the reported lifetime of the reference compounds as shown below:
[formula] where τx is the atmospheric lifetime of the 1-propenylamine, τr is the atmospheric lifetime of the reference compound, and kx and kr are the rate constants for the reaction of hydroxyl radical with the isomeric 1-propenylamines and the reference compound, respectively.

Structure (SMILES)	Atmospheric Lifetime, E-isomer	Atmospheric Lifetime, Z-isomer
FC(=C(F)C(F)(F)F)N(C(F)(F)F)C(F)(F)F [(CF3)2N—CF═CFCF3, 1,2,3,3,3-pentafluoro-N,N-bis(trifluoromethyl)prop-1-en-1-amine]	0.71 Yrs	1.9 Yrs
FC(=C(F)C(F)(F)F)N(C(F)(F)F)C(F)(F)C(F)(F)F [C2F5(CF3)N—CF═CFCF3]	1.4 Yrs	3.5 Yrs
